Reference: US6680054B1 (priority 1996, dated 2004)
Where two headings read alike, the source gives them in different places.

Experiments:
influenza A virus = assay type: cell-based
[1] = biological target: whole virus influenza neuraminidase, A/NWS/Tokyo/3/67/H1N2 (Influenza A virus, UniProt P06820); assay type: biochemical; details: read-out: inhibition constants (IC50), NWS/Tokyo
influenza strain Tokyo A = assay type: cell-based
[2] = test system: influenza strain X-31 (H3N2); assay type: cell-based

Sequence of whole virus influenza neuraminidase, A/NWS/Tokyo/3/67/H1N2 (P06820 whole entry, looked up): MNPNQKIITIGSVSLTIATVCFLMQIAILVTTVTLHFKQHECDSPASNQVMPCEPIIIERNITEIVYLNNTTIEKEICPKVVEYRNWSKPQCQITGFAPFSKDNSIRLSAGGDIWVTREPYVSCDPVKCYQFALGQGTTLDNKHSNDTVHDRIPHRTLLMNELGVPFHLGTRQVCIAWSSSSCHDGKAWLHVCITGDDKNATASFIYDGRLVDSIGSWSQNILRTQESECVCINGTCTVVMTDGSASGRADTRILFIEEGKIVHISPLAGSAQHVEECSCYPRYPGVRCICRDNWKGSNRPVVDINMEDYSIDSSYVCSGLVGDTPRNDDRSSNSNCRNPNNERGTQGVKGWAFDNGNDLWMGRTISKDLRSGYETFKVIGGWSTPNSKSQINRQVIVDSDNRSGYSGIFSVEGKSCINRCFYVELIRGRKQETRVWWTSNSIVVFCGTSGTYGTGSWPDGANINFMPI

Compound | ID50, minimum compound concentration that inhibits cytopathic effect by 50% (influenza A virus) [µg/mL] | MTC, minimum cytotoxic drug concentration (MDCK cells) | MTC, minimum cytotoxic drug concentration (MDCK cells; dog) | other results
7-{6′-{6″-[6″′-(6″″-(6′″″-aminocaproyl)-aminocaproyl)-aminocaproyl]-aminocaproyl}-aminohexyl-carbamoyl-oxy-4-guanidino-Neu5Ac2en [Compound 2c] | 3.0 | >100 | – | –
CC(=O)N[C@H]1[C@H]([C@H](O)[C@H](O)CO)OC(C(=O)O)=C[C@@H]1O [DANA, 2-deoxy-2,3-didehydro-N-acetylneuraminic acid] | – | – | – | IC50 [1]: 6 µM
CC(=O)NC1C(NC(=N)N)C=C(C(=O)O)OC1[C@H](O)[C@H](O)CO (stereo partly shown) [GG167, 4-guanidino-Neu5Ac2en] | <0.32 | – | >100 | –
NC(=O)c1ncn([C@@H]2O[C@H](CO)[C@@H](O)[C@H]2O)n1 [Ribavirin] | 1.0 to 2.6 | – | >32 | –
Fetuin | – | – | – | Lowest Concentration (μM of GG167 units) that Inhibited Agglutination, TOKYO (influenza strain Tokyo A): 5.86 µM; Lowest Concentration (μM of GG167 units) that Inhibited Agglutination, X-31 [2]: <0.48 µM
Polyacrylamide | – | >100 | – | –
